# PubChem BioAssay (NCI)
#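 GI50 is the concentration that inhibits growth by half. The concentration for full growth arrest is given as TGI.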
# How the values were obtained:
# Experiment in all cases: growth of human tumour cells (NCI), 384-well format
# OVCAR-3 ovarian = test system: OVCAR-3 ovarian
# HS 578T breast = test system: HS 578T breast
# MCF7 breast = test system: MCF7 breast
# UACC-62 melanoma = test system: UACC-62 melanoma
# MALME-3M melanoma = test system: MALME-3M melanoma
# EKVX NSCLC = test system: EKVX NSCLC
# T-47D breast = test system: T-47D breast
# UACC-257 melanoma = test system: UACC-257 melanoma
# CAKI-1 renal = test system: CAKI-1 renal
# M14 melanoma = test system: M14 melanoma
# NCI-H322M lung = test system: NCI-H322M lung
# SK-MEL-5 melanoma = test system: SK-MEL-5 melanoma
# NCI-H460 NSCLC = test system: NCI-H460 NSCLC
# SR leukemia = test system: SR leukemia
# HCT-15 colon = test system: HCT-15 colon
# NCI-H522 lung = test system: NCI-H522 lung
# NCI-H23 lung = test system: NCI-H23 lung
# KM12 colon = test system: KM12 colon
# HCT-116 colon = test system: HCT-116 colon
# SN12C renal = test system: SN12C renal
# SF-268 CNS = test system: SF-268 CNS
# U251 glioblastoma = test system: U251 glioblastoma
# RXF 393 renal = test system: RXF 393 renal
# COLO 205 colon = test system: COLO 205 colon
# SNB-75 CNS = test system: SNB-75 CNS
# SF-295 CNS = test system: SF-295 CNS
# OVCAR-4 ovarian = test system: OVCAR-4 ovarian
# SK-OV-3 ovarian = test system: SK-OV-3 ovarian
# K-562 leukemia = test system: K-562 leukemia
# SW-620 colon = test system: SW-620 colon
# HOP-92 NSCLC = test system: HOP-92 NSCLC
# MDA-MB-231 breast = test system: MDA-MB-231 breast
# PC-3 prostate = test system: PC-3 prostate
# NCI-H226 lung = test system: NCI-H226 lung
# IGROV1 ovarian = test system: IGROV1 ovarian
# A549 NSCLC = test system: A549 NSCLC
# 786-0 renal = test system: 786-0 renal
# SNB-19 CNS = test system: SNB-19 CNS
# UO-31 renal = test system: UO-31 renal
# HOP-62 NSCLC = test system: HOP-62 NSCLC
# HT29 colon = test system: HT29 colon
# OVCAR-8 ovarian = test system: OVCAR-8 ovarian
# MDA-MB-435 melanoma = test system: MDA-MB-435 melanoma
# DU-145 prostate = test system: DU-145 prostate
# MOLT-4 leukemia = test system: MOLT-4 leukemia
# BT-549 breast = test system: BT-549 breast
# MDA-MB-468 breast = test system: MDA-MB-468 breast
# OVCAR-5 ovarian = test system: OVCAR-5 ovarian
# TK-10 renal = test system: TK-10 renal
# HL-60(TB) leukemia = test system: HL-60(TB) leukemia
# SK-MEL-28 melanoma = test system: SK-MEL-28 melanoma
# SF-539 CNS = test system: SF-539 CNS
# SK-MEL-2 melanoma = test system: SK-MEL-2 melanoma
structure (smiles),measurement,setting,value
C=CCn1c(=O)c2cnc(Nc3ccc(N4CCN(C)CC4)cc3)nc2n1-c1ccc2c(n1)[C@@](O)(CC)CC2,GI50,OVCAR-3 ovarian,126 nM
same,TGI,OVCAR-3 ovarian,371 nM
same,GI50,HS 578T breast,83 nM
same,TGI,HS 578T breast,445 nM
same,GI50,MCF7 breast,218 nM
same,TGI,MCF7 breast,2190 nM
same,GI50,UACC-62 melanoma,371 nM
same,TGI,UACC-62 melanoma,14700 nM
same,GI50,MALME-3M melanoma,101 nM
same,TGI,MALME-3M melanoma,484 nM
same,GI50,EKVX NSCLC,324 nM
same,TGI,EKVX NSCLC,2510 nM
same,GI50,T-47D breast,5810 nM
same,TGI,T-47D breast,21800 nM
same,GI50,UACC-257 melanoma,1950 nM
same,TGI,UACC-257 melanoma,11300 nM
same,GI50,CAKI-1 renal,64.4 nM
same,TGI,CAKI-1 renal,12700 nM
same,GI50,M14 melanoma,58.4 nM
same,TGI,M14 melanoma,863 nM
same,GI50,NCI-H322M lung,206 nM
same,TGI,NCI-H322M lung,2030 nM
same,GI50,SK-MEL-5 melanoma,172 nM
same,TGI,SK-MEL-5 melanoma,453 nM
same,GI50,NCI-H460 NSCLC,139 nM
same,TGI,NCI-H460 NSCLC,806 nM
same,GI50,SR leukemia,103 nM
same,TGI,SR leukemia,224 nM
same,GI50,HCT-15 colon,440 nM
same,TGI,HCT-15 colon,1800 nM
same,GI50,NCI-H522 lung,130 nM
same,TGI,NCI-H522 lung,286 nM
same,GI50,NCI-H23 lung,78.5 nM
same,TGI,NCI-H23 lung,257 nM
same,GI50,KM12 colon,1130 nM
same,TGI,KM12 colon,7260 nM
same,GI50,HCT-116 colon,268 nM
same,TGI,HCT-116 colon,8680 nM
same,GI50,SN12C renal,328 nM
same,TGI,SN12C renal,3890 nM
same,GI50,SF-268 CNS,689 nM
same,TGI,SF-268 CNS,13800 nM
same,GI50,U251 glioblastoma,497 nM
same,TGI,U251 glioblastoma,11400 nM
same,GI50,RXF 393 renal,26 nM
same,TGI,RXF 393 renal,106 nM
same,GI50,COLO 205 colon,349 nM
same,TGI,COLO 205 colon,2020 nM
same,GI50,SNB-75 CNS,1070 nM
same,TGI,SNB-75 CNS,8160 nM
same,GI50,SF-295 CNS,348 nM
same,TGI,SF-295 CNS,3540 nM
same,GI50,OVCAR-4 ovarian,196 nM
same,TGI,OVCAR-4 ovarian,1040 nM
same,GI50,SK-OV-3 ovarian,174 nM
same,TGI,SK-OV-3 ovarian,1570 nM
same,GI50,K-562 leukemia,165 nM
same,TGI,K-562 leukemia,354 nM
same,GI50,SW-620 colon,280 nM
same,TGI,SW-620 colon,1950 nM
same,GI50,HOP-92 NSCLC,130 nM
same,TGI,HOP-92 NSCLC,13400 nM
same,GI50,MDA-MB-231 breast,395 nM
same,TGI,MDA-MB-231 breast,10100 nM
same,GI50,PC-3 prostate,1040 nM
same,TGI,PC-3 prostate,20300 nM
same,GI50,NCI-H226 lung,1020 nM
same,TGI,NCI-H226 lung,5550 nM
same,GI50,IGROV1 ovarian,95.3 nM
same,TGI,IGROV1 ovarian,1350 nM
same,GI50,A549 NSCLC,1830 nM
same,TGI,A549 NSCLC,12300 nM
same,GI50,786-0 renal,243 nM
same,TGI,786-0 renal,964 nM
same,GI50,SNB-19 CNS,1350 nM
same,TGI,SNB-19 CNS,> 100000 nM
same,GI50,UO-31 renal,307 nM
same,TGI,UO-31 renal,1440 nM
same,GI50,HOP-62 NSCLC,401 nM
same,TGI,HOP-62 NSCLC,2150 nM
same,GI50,HT29 colon,211 nM
same,TGI,HT29 colon,536 nM
same,GI50,OVCAR-8 ovarian,288 nM
same,TGI,OVCAR-8 ovarian,1050 nM
same,GI50,MDA-MB-435 melanoma,160 nM
same,TGI,MDA-MB-435 melanoma,374 nM
same,GI50,DU-145 prostate,241 nM
same,TGI,DU-145 prostate,3890 nM
same,GI50,MOLT-4 leukemia,30.5 nM
same,TGI,MOLT-4 leukemia,121 nM
same,GI50,BT-549 breast,137 nM
same,TGI,BT-549 breast,348 nM
same,GI50,MDA-MB-468 breast,120 nM
same,TGI,MDA-MB-468 breast,349 nM
same,GI50,OVCAR-5 ovarian,920 nM
same,TGI,OVCAR-5 ovarian,14400 nM
same,GI50,TK-10 renal,160 nM
same,TGI,TK-10 renal,1560 nM
same,GI50,HL-60(TB) leukemia,110 nM
same,TGI,HL-60(TB) leukemia,233 nM
same,GI50,SK-MEL-28 melanoma,2880 nM
same,TGI,SK-MEL-28 melanoma,14300 nM
same,GI50,SF-539 CNS,49.5 nM
same,TGI,SF-539 CNS,194 nM
same,GI50,SK-MEL-2 melanoma,124 nM
same,TGI,SK-MEL-2 melanoma,352 nM
